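Five concentrations, 48 hours, 96-well plates. Here, GI50 denotes the concentration required for 50% inhibition of growth. TGI: total growth inhibition.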
Tests used:
Assay in all cases: DTP human tumour cell line panel, 48 h
[1] = system: LOX IMVI melanoma
[2] = system: SK-MEL-2 melanoma
[3] = system: SK-MEL-28 melanoma
[4] = system: SK-MEL-5 melanoma
[5] = system: SK-OV-3 ovarian
[6] = system: SNB-19 CNS
[7] = system: SR leukemia
[8] = system: UACC-62 melanoma
[9] = system: UO-31 renal
[10] = system: MCF7 breast

| SMILES | TGI [1] [µM] | TGI [2] [µM] | TGI [3] [µM] | TGI [4] [µM] | TGI [5] [µM] | TGI [6] [µM] | TGI [7] [µM] | TGI [8] [µM] | TGI [9] [µM] | TGI [10] [µM] | GI50 [10] [µM] | GI50 [2] [µM] | GI50 [3] [µM] | GI50 [4] [µM] | GI50 [5] [µM] | GI50 [6] [µM] | GI50 [7] [µM] | GI50 [8] [µM] | GI50 [9] [µM] | GI50 [1] [µM] |
| --- | --- | --- | --- | --- | --- | --- | --- | --- | --- | --- | --- | --- | --- | --- | --- | --- | --- | --- | --- | --- |
| COC(OC)c1cccc2c1C1(O)CCC3(CC21)OCCCCO3 (centres undefined) | > 100 | > 100 | > 100 | > 100 | > 100 | > 100 | > 100 | > 100 | > 100 |  |  |  |  |  |  |  |  |  |  |  |
| CCCNCc1nc2ccc(Br)cc2c(=O)n1CCC | 17.7 | 25.2 | 29 | 21.6 | 32.6 | 30.5 | > 100 | 19.8 | 29.8 |  |  |  |  |  |  |  |  |  |  |  |
| C(=C\c1csnn1)/c1cccnc1 | > 100 | > 100 | > 100 |  | > 100 | > 100 |  |  | > 100 |  |  |  |  |  |  |  |  |  |  |  |
| COc1ccc2c3c1C(=O)CCC3CO2 (centres undefined) | > 100 | > 100 | > 100 | > 100 | > 100 | > 100 |  | > 100 | > 100 |  |  |  |  |  |  |  |  |  |  |  |
| CC(=O)OC1CC2CCC1(C)C2(C)C (centres undefined) | > 100 | > 100 | > 100 |  | > 100 | > 100 |  | > 100 | > 100 | > 100 |  |  |  |  |  |  |  |  |  |  |
| CC(=O)N1CC2Nc3ccccc3C2CC1CO (centres undefined) | > 100 | > 100 | > 100 | > 100 | > 100 | > 100 |  | > 100 | > 100 |  |  |  |  |  |  |  |  |  |  |  |
| CCCCCCCCCCCC(=O)OCC1OC(n2cc(F)c(=O)[nH]c2=O)C(N)C(OC(=O)CCCCCCCCCCC)C1O (centres undefined) | > 100 | > 100 | > 100 | 30.5 | > 100 | > 100 | > 100 | > 100 | > 100 |  |  |  |  |  |  |  |  |  |  |  |
| Cc1ccccc1C(=O)Oc1ccc(Oc2ccccc2)cc1 |  | > 100 |  | > 100 | > 100 | > 100 |  | > 100 | > 100 |  |  |  |  |  |  |  |  |  |  |  |
| O=C1/C(=C/c2ccccc2Cl)N=C(c2ccccc2)N1Cc1ccco1 |  | 55.1 | > 100 | 36.3 | > 100 | > 100 | > 100 | 34.7 | > 100 | > 100 | 18.3 | 28.1 | 44.7 | 17.9 | > 100 | > 100 | 26.2 | 12.6 | 55.4 |  |
| CCC[CH2][Sn]([CH2]CCC)([O]C(=O)c1cccc(F)c1)[O]C(=O)c1cccc(F)c1 | 2.99 | 2.1 | 2.02 | 2.76 | 3.45 | 1.39 |  | 2.09 | 2.47 |  |  | 0.851 | 0.703 | 1.39 | 1.84 | 0.369 |  | 0.719 | 1.23 | 0.605 |
| Cc1nn(C(=O)c2ccc(Cl)cc2)c2c1C(c1ccc([N+](=O)[O-])cc1)SC(N)=N2 (centres undefined) | > 10 | > 10 | > 10 | > 10 | > 10 | > 10 | > 10 | > 10 |  | > 10 |  |  |  |  |  |  |  |  |  |  |
| Cc1cc(NS(=O)(=O)c2ccc(NC(=O)c3cccc4c(N)c5ccccc5nc34)cc2)no1 | 65.8 | 37.2 | 44.2 |  | 75.5 | 34 |  | 57.7 | 95.7 |  |  |  |  |  |  |  |  |  |  |  |
| CC(=O)O[C@@H]1CO[C@H]2O[C@H]3[C@@H](C(C=O)=C[C@H](O)[C@@H]4C5=C(C(C)C)CC[C@]5(C)CC[C@@]34C)[C@@]2(O)C1=O | 0.687 | 0.596 | 0.771 | 0.577 |  | 1.97 |  | 1.06 | 0.598 | 1.69 |  |  |  |  |  |  |  |  |  |  |
| C=C1CC(CCCl)(c2ccccc2)OC1=O (centres undefined) | > 62.2 | > 100 | 22.2 | > 100 | > 100 | > 100 | 52.6 | > 100 | > 100 |  |  |  |  |  |  |  |  |  |  |  |
| O=c1ccccc2cccc(O)c12 | > 100 |  | > 100 | > 100 | > 100 | > 100 |  | > 100 |  |  |  |  |  |  |  |  |  |  |  |  |
| O=C(O)/C(=C/c1ccccc1[N+](=O)[O-])c1ccccc1 | > 100 | > 100 | > 100 | > 100 | > 100 | > 100 | > 100 | > 100 | > 100 |  |  |  |  |  |  |  |  |  |  |  |
| CCN(CC)CCOc1ccc(/C=C2\CC3C4CCC5=CC(=O)CC[C@]5(C)C4CC[C@]3(C)C2=O)cc1OC (some centres undefined) | 4.43 | > 100 | 5.67 | 3.28 | 8.46 | 22.7 |  | 4.13 | > 100 | 13.7 | 3.02 | 9.01 | 2.29 | 1.63 | 2.66 | 4.03 |  | 2.01 | 0.701 | 1.89 |
| O=C(N/N=C1\CCc2ccccc2C1)N/N=C1\CCc2ccccc2C1 |  | > 10 |  |  |  | > 10 | > 10 |  | > 10 | > 10 |  |  |  |  |  |  |  |  |  |  |
| Nc1ccc(Nc2nc(F)nc(-c3c4ccccc4c4n3CCS4)n2)cc1 | 24.6 | 29.3 | 33.3 | 25.8 | 31.1 | 30.3 |  |  | 22.2 |  |  |  |  |  |  |  |  |  |  |  |
| O=Cc1ccc(-c2ccc(-c3ccc(C=O)s3)o2)s1 | > 100 | > 100 | > 100 | > 100 | > 100 | > 100 | > 100 | 0.441 | > 100 |  |  |  |  |  |  |  |  |  |  |  |
| CC(c1ccc(Br)cc1)C(C(=O)O)C(=O)O (centres undefined) | > 100 | > 100 | > 100 | > 100 | > 100 | > 100 | > 100 | > 100 | > 100 |  |  |  |  |  |  |  |  |  |  |  |
| Cc1ccc(NC(=O)/C(CC(=O)c2c[n+](=O)c3ccccc3n2O)=N\NC(=O)C[n+]2ccccc2)cc1 | > 100 | > 100 | > 100 | > 100 | > 100 | > 100 | > 100 | > 100 | > 100 |  |  |  |  |  |  |  |  |  |  |  |
| Cc1c(C(=O)/C=C/c2ccc(Cl)cc2)[n+](=O)c2ccccc2n1[O-] | 20.5 |  | 32.6 |  | 47.6 | 27.8 | 73.1 | 26.8 | 29.9 |  |  |  |  |  |  |  |  |  |  |  |

From PubChem BioAssay (NCI)
